From patent publication US20060079453A1, “Hla binding peptides and their uses” (priority 2002, published 2006)
Where two headings read alike, the source gives them in different places. No end group written: not given here.

Assays:
Assay in all cases: biochemical
Assay type in all cases: binding
[1] = molecular target: HLA-DR DRB1*0101 (DR1) (Homo sapiens, UniProt P01903+P01911, A100R/D57E/F55L/F60I/F76Y/I96L/L162R/M171V/P40L/Q125E/R42F/V115G/Y59C)
[2] = molecular target: HLA-DR DRB1*0401 (DR4) (Homo sapiens, UniProt P01903+P01911, A100K/A169T/F76Y/I96L/K127E/L162R/M171V/N62H/P40V/Q125Y/R42H/S133A/S149N/S66Y/V115G/V209L/W38E)
[3] = molecular target: HLA-DR DRB1*0701 (DR7) (Homo sapiens, UniProt P01903+P01911, A100R/A102G/A103Q/D57E/D86V/E43K/F76Y/K127E/L162R/M171V/P40G/Q125H/Q99D/R33Q/R42Y/R54Q/S133A/S66F/T210M/V115G/Y107V/Y59L/Y89S)
[4] = molecular target: HLA-DR DRB1*1302 (DR13) (Homo sapiens, UniProt P01903+P01911, A100E/A169T/K41T/L162R/M171V/P40S/Q125H/Q178H/Q39Y/Q99D/R42S/S66N/T262R/V115G/W38E/Y61H)
[5] = molecular target: HLA-DR DRB1*1501 (DR15) (Homo sapiens, UniProt P01903+P01911)
[6] = molecular target: HLA-DR DRB4*0101 (DR53) (Homo sapiens, UniProt P01903+P13762, G164S)
[7] = molecular target: HLA-DR DRB5*0101 (DR51) (Homo sapiens, UniProt P01903+Q30154)
[8] = molecular target: HLA-DR DRB1*1101 (DR11) (Homo sapiens, UniProt P01903+P01911, A100R/A169T/A87E/I96F/K41T/L162R/M171V/P40S/Q125H/Q178H/Q39Y/Q99D/R42S/S66Y/T262R/V115G/W38E)
[9] = molecular target: HLA-DR DRB1*0301 (DR3) (Homo sapiens, UniProt P01903+P01911, A100K/A102G/A103R/A169T/F55Y/I96L/K41T/L162R/M171V/P40S/Q125H/Q178H/Q39Y/R42S/S66N/T106N/T262R/W38E/Y61H); settings: read-out: DRB1 *0301
Sequence of HLA-DR DRB1*0301 (DR3) (P01903 26-254 limits assumed, other chains not shown): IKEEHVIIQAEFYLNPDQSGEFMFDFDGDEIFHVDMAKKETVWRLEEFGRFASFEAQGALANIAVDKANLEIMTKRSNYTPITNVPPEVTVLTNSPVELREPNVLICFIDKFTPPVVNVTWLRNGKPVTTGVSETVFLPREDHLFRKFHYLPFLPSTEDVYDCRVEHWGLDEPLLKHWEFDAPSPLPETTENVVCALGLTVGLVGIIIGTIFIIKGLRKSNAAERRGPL

Sequence of HLA-DR DRB1*1302 (DR13) (P01903 26-254 limits assumed, other chains not shown): as above
Sequence of HLA-DR DRB1*1101 (DR11) (P01903 26-254 limits assumed, other chains not shown): as above

ENEYATGAVRPFQAA
IC50 ([1]; DRB1 *0101): 4440 nM | IC50 ([2]; DRB1 *0401): 281 nM | IC50 ([3]; DRB1 *0701): 4970 nM | IC50 ([4]; DRBI *1302): 9300 nM | IC50 ([5]; DRBI *1501): 3010 nM | IC50 ([6]; DRB4 *0101): 10000 nM | IC50 ([7]; DRB5 *0101): > 10300 nM

EYLILSARDVLAVVS
IC50 [2]: 508 nM | IC50 [8]: 6860 nM | IC50 [5]: 2340 nM | IC50 ([6]; DRB4 *0101): 2530 nM | IC50 [7]: 4150 nM

HFNMLKNKMQSSFFM
IC50 ([1]; DRB1 *0101): 12 nM | IC50 ([2]; DRB1 *0401): 18 nM | IC50 ([3]; DRB1 *0701): 3230 nM | IC50 ([5]; DRBI *1501): 616 nM | IC50 ([6]; DRB4 *0101): 934 nM | IC50 ([7]; DRB5 *0101): 60 nM

IQQLLMGTVNIVCPT
IC50 ([8]; read-out: DRB1 *1101): 11100 nM | IC50 ([4]; read-out: DRBI *1302): 9 nM | IC50 ([5]; read-out: DRBI *1501): 2010 nM | IC50 ([7]; read-out: DRB5 *0101): > 55100 nM

KATLQDIVLHLEPQN
IC50 ([1]; DRB1 *0101): 1200 nM | IC50 ([2]; DRB1 *0401): 1990 nM | IC50 ([3]; DRB1 *0701): 9090 nM | IC50 ([8]; DRB1 *1101): 25900 nM | IC50 ([4]; DRBI *1302): 603 nM | IC50 ([5]; DRBI *1501): 6970 nM | IC50 ([6]; DRB4 *0101): 159 nM | IC50 ([7]; DRB5 *0101): > 9930 nM

KKNIIALLIIPPKIH
IC50 ([5]; read-out: DRBI *1501): 32 nM | IC50 ([6]; read-out: DRB4 *0101): 8.2 nM

KKPLNEILIRCHCQ
IC50 ([8]; read-out: DRB1 *1101): 1300 nM | IC50 ([4]; read-out: DRBI *1302): 965 nM | IC50 ([6]; read-out: DRB4 *0101): 140 nM

KSKFNILSSPLFNNF
IC50 ([1]; read-out: DRB1 *0101): 0.8 nM | IC50 ([2]; read-out: DRB1 *0401): 16 nM | IC50 ([3]; read-out: DRB1 *0701): 65 nM | IC50 ([4]; read-out: DRBI *1302): 25 nM | IC50 ([5]; read-out: DRBI *1501): 5.9 nM | IC50 ([7]; read-out: DRB5 *0101): 32 nM

KVSCKGSGYTFTAYQMH
IC50 ([1]; DRB1 *0101): 5000 nM | IC50 ([3]; DRB1 *0701): 50000 nM | IC50 ([8]; DRB1 *1101): > 200000 nM

LAHYDVLLSYPNKTA
IC50 ([8]; read-out: DRB1 *1101): 380 nM | IC50 ([5]; read-out: DRBI *1501): 82 nM | IC50 ([6]; read-out: DRB4 *0101): 589 nM

LCNFKKNIIALLHP
IC50 ([4]; read-out: DRBI *1302): 16 nM | IC50 ([5]; read-out: DRBI *1501): 29300 nM | IC50 ([6]; read-out: DRB4 *0101): 99 nM | IC50 ([7]; read-out: DRB5 *0101): > 42600 nM

LGFFPDHQLDPAFRANT
IC50 [9]: 12000 nM

LQDVVLELTPQTEID
IC50 ([1]; DRB1 *0101): 1490 nM | IC50 ([3]; DRB1 *0701): 5670 nM | IC50 ([8]; DRB1 *1101): > 31600 nM | IC50 ([4]; DRBI *1302): 1140 nM | IC50 ([5]; DRBI *1501): > 33100 nM | IC50 ([6]; DRB4 *0101): 1120 nM | IC50 ([7]; DRB5 *0101): > 31400 nM

LREYILDLHPEPTDL
IC50 ([8]; read-out: DRB1 *1101): 9830 nM | IC50 ([7]; read-out: DRB5 *0101): > 40400 nM

LSFFLKEKGGLDGLI
IC50 ([8]; read-out: DRB1 *1101): 614 nM | IC50 ([4]; read-out: DRBI *1302): > 12000 nM | IC50 ([5]; read-out: DRBI *1501): > 39700 nM

LSHFLKEKGGLEGL
IC50 ([1]; read-out: DRB1 *0101): 537 nM | IC50 [9]: > 341000 nM

LSHFLKEKGGLEGLI
IC50 ([8]; read-out: DRB1 *1101): 9460 nM | IC50 ([4]; read-out: DRBI *1302): > 12000 nM | IC50 ([5]; read-out: DRBI *1501): > 39700 nM | IC50 ([6]; read-out: DRB4 *0101): 18700 nM | IC50 ([7]; read-out: DRB5 *0101): > 20500 nM
